Like-named read-outs stand apart in the source and are kept apart here.
Experiments:
[1] = tested on: Mycosphaerella graminicola; Anamorph: Septoria tritici; assay: Fungicidal activity: Leaf Blotch of Wheat (SEPTTR); assay type: in vivo; settings: Zymoseptoria tritici, Low Volume (121.5 g/H), wheat leaf blotch
Procedure: Evaluation of Fungicidal Activity: Leaf Blotch of Wheat (Mycosphaerella graminicola; Anamorph: Septoria tritici; Bayer Code […]) Technical grades of materials were dissolved in acetone, which were then mixed with nine volumes of water containing 110 ppm Triton X-100. The fungicide solutions were applied onto wheat seedlings using an automated booth sprayer to run-off. All sprayed plants were allowed to air dry prior to further handling. All fungicides were evaluated using the aforementioned method for their activity vs. all target diseases, unless stated otherwise. Wheat leaf blotch and brown rust activity were also evaluated using track spray applications, in which case the fungicides were formulated as EC formulations, containing 0.1% Trycol 5941 in the spray solutions. Wheat plants (variety Yuma) were grown from seed in a greenhouse in 50% mineral soil/50% soil-less Metro mix until the first leaf was fully emerged, with 7-10 seedlings per pot. These plants were inoculated with an aqueous spore suspension of Septoria tritici either prior to or after fungicide treatments. After inoculation the plants were kept in 100% relative humidity (one day in a dark dew chamber followed by two to three days in a lighted dew chamber at 20° C.) to permit spores to germinate and infect the leaf. The plants were then transferred to a greenhouse set at 20° C. for disease to develop. When disease symptoms were fully expressed on the 1st leaves of untreated plants, infection levels were assessed on a scale of 0 to 100 percent disease severity. Percent disease control was calculated using the ratio of disease severity on treated plants relative to untreated plants.

Puccinia triticina = assay: Fungicidal activity: Wheat Brown Rust (PUCCRT); assay type: in vivo; settings: Low Volume (121.5 g/H)
Procedure: Technical grades of materials were dissolved in acetone, which were then mixed with nine volumes of water containing 110 ppm Triton X-100. The fungicide solutions were applied onto wheat seedlings using an automated booth sprayer to run-off. All sprayed plants were allowed to air dry prior to further handling. All fungicides were evaluated using the aforementioned method for their activity vs. all target diseases, unless stated otherwise. Wheat leaf blotch and brown rust activity were also evaluated using track spray applications, in which case the fungicides were formulated as EC formulations, containing 0.1% Trycol 5941 in the spray solutions. Wheat plants (variety Yuma) were grown from seed in a greenhouse in 50% mineral soil/50% soil-less Metro mix until the first leaf was fully emerged, with 7-10 seedlings per pot. These plants were inoculated with an aqueous spore suspension of Septoria tritici either prior to or after fungicide treatments. After inoculation the plants were kept in 100% relative humidity (one day in a dark dew chamber followed by two to three days in a lighted dew chamber at 20° C.) to permit spores to germinate and infect the leaf. The plants were then transferred to a greenhouse set at 20° C. for disease to develop. When disease symptoms were fully expressed on the 1st leaves of untreated plants, infection levels were assessed on a scale of 0 to 100 percent disease severity. Percent disease control was calculated using the ratio of disease severity on treated plants relative to untreated plants. Evaluation of Fungicidal Activity: Wheat Brown Rust (Puccinia triticina; Synonym: Puccinia recondite f. Sp. Tritici; Bayer Code PUCCRT) Wheat plants (variety Yuma) were grown from seed in a greenhouse in 50% mineral soil/50% soil-less Metro mix until the first leaf was fully emerged, with 7-10 seedlings per pot. These plants were inoculated with an aqueous spore suspension of Puccinia triticina either prior to or after fungicide treatments. After inoculation the plants were kept in a dark dew room at 22° C. with 100% relative humidity overnight to permit spores to germinate and infect the leaf. The plants were then transferred to a greenhouse set at 24° C. for disease to develop. Fungicide formulation, application and disease assessment followed the procedures as described in the Example A.

[2] = 24 h, 1 Day Protectant, read-out: SEPTTR 1 DP disease control
[3] = 72 h, 3 Day Curative, read-out: SEPTTR 3 DC disease control
[4] = 24 h, 1 Day Protectant, read-out: PUCCRT 1 DP disease control
[5] = 72 h, 3 Day Curative, read-out: PUCCRT 3 DC disease control

SMILES	pest or weed control at 121.5 g/ha [1, 2]	pest or weed control at 121.5 g/ha [1, 3]	pest or weed control at 121.5 g/ha (Puccinia triticina; [4])	pest or weed control at 121.5 g/ha (Puccinia triticina; [5])
CCOCC(=O)OCOc1c(OC)ccnc1C(=O)N[C@H]1COC[C@H](CCC(C)C)[C@@H](CCc2ccccc2)[C@H](C)OC1=O [compound 36]	> 70%	> 70%	> 70%	< 70%
COc1ccnc(C(=O)N[C@H]2COC[C@H](Cc3ccccc3)[C@@H](C3CCCC3)[C@H](C)OC2=O)c1OC(C)=O [compound 37]	> 70%	> 70%	> 70%	> 70%
COc1ccnc(C(=O)N[C@H]2COC[C@H](Cc3ccccc3)[C@@H](C3CCCC3)[C@H](C)OC2=O)c1OCOC(C)=O [compound 38]	> 70%	> 70%	> 70%	> 70%
COc1ccnc(C(=O)N[C@H]2COC[C@H](Cc3ccccc3)[C@@H](C3CCCC3)[C@H](C)OC2=O)c1OCOC(=O)C(C)C [compound 39]	> 70%	> 70%	> 70%	> 70%
CCOCC(=O)OCOc1c(OC)ccnc1C(=O)N[C@H]1COC[C@H](Cc2ccccc2)[C@@H](C2CCCC2)[C@H](C)OC1=O [compound 40]	> 70%	> 70%	> 70%	> 70%
COc1ccnc(C(=O)N[C@H]2COC[C@H](CCCc3ccccc3)[C@@H](Cc3ccccc3)[C@H](C)OC2=O)c1OC(C)=O [compound 41]	> 70%	> 70%	> 70%	> 70%
COc1ccnc(C(=O)N[C@H]2COC[C@H](CCCc3ccccc3)[C@@H](Cc3ccccc3)[C@H](C)OC2=O)c1OCOC(C)=O [compound 42]	> 70%	> 70%	> 70%	< 70%
COc1ccnc(C(=O)N[C@H]2COC[C@H](CCCc3ccccc3)[C@@H](Cc3ccccc3)[C@H](C)OC2=O)c1OCOC(=O)C(C)C [compound 43]	> 70%	> 70%	> 70%	< 70%
COc1ccnc(C(=O)N[C@H]2COC[C@H](CCC(C)C)[C@@H](Cc3ccccc3)[C@H](C)OC2=O)c1OCOC(C)=O [compound 44]	> 70%	> 70%	> 70%	< 70%
CCOCC(=O)OCOc1c(OC)ccnc1C(=O)N[C@H]1COC[C@H](CCC(C)C)[C@@H](Cc2ccccc2)[C@H](C)OC1=O [compound 45]	> 70%	> 70%	> 70%	> 70%
COc1ccnc(C(=O)N[C@H]2COC[C@H](CCC(C)C)[C@@H](Cc3ccccc3)[C@H](C)OC2=O)c1OC(C)=O [compound 46]	> 70%	> 70%	> 70%	> 70%
COc1ccnc(C(=O)N[C@H]2COC[C@H](Cc3ccc(Cl)cc3)[C@@H](Cc3ccccc3)[C@H](C)OC2=O)c1OCOC(C)=O [compound 47]	> 70%	> 70%	> 70%	> 70%
COc1ccnc(C(=O)N[C@H]2COC[C@H](Cc3ccccc3)[C@@H](Cc3ccc(OC(F)(F)F)cc3)[C@H](C)OC2=O)c1OCOC(=O)C(C)C [compound 48]	> 70%	> 70%	> 70%	< 70%
COc1ccnc(C(=O)N[C@H]2COC[C@H](Cc3ccccc3)[C@@H](Cc3ccc(OC(F)(F)F)cc3)[C@H](C)OC2=O)c1OCOC(C)=O [compound 49]	> 70%	< 70%	> 70%	< 70%
COc1ccnc(C(=O)N[C@H]2COC[C@H](Cc3ccccc3)[C@@H](Cc3ccc(OC(F)(F)F)cc3)[C@H](C)OC2=O)c1OC(C)=O [compound 50]	> 70%	< 70%	> 70%	< 70%
CCOCC(=O)OCOc1c(OC)ccnc1C(=O)N[C@H]1COC[C@H](Cc2ccccc2)[C@@H](c2ccccc2)[C@H](C)OC1=O [compound 51]	> 70%	< 70%	> 70%	< 70%
COc1ccnc(C(=O)N[C@H]2COC[C@H](Cc3ccccc3)[C@@H](c3ccccc3)[C@H](C)OC2=O)c1OCOC(C)=O [compound 53]	> 70%	> 70%	> 70%	> 70%
COc1ccnc(C(=O)N[C@H]2COC[C@H](Cc3ccc(C(F)(F)F)cc3)[C@@H](Cc3ccccc3)[C@H](C)OC2=O)c1OC(C)=O [compound 55]	> 70%	> 70%	> 70%	> 70%
COc1ccnc(C(=O)N[C@H]2COC[C@H](Cc3ccc(C(F)(F)F)cc3)[C@@H](Cc3ccccc3)[C@H](C)OC2=O)c1OCOC(C)=O [compound 56]	> 70%	< 70%	> 70%	< 70%
COc1ccnc(C(=O)N[C@H]2COC[C@H](Cc3ccc(C(F)(F)F)cc3)[C@@H](Cc3ccccc3)[C@H](C)OC2=O)c1OCOC(=O)C(C)C [compound 57]	> 70%	> 70%	> 70%	< 70%
COc1ccnc(C(=O)N[C@H]2COC[C@H](Cc3ccccc3)[C@@H](Cc3ccc(F)cc3)[C@H](C)OC2=O)c1OC(C)=O [compound 60]	> 70%	< 70%	< 70%	< 70%
COc1ccnc(C(=O)N[C@H]2COC[C@H](Cc3ccccc3)[C@@H](Cc3ccc(F)cc3)[C@H](C)OC2=O)c1OCOC(C)=O [compound 61]	> 70%	> 70%	> 70%	> 70%
COc1ccnc(C(=O)N[C@H]2COC[C@H](CCCc3ccccc3)[C@@H](CC(C)C)[C@H](C)OC2=O)c1OC(C)=O [compound 62]	> 70%	> 70%	> 70%	> 70%
CCC[C@H]1COC[C@H](NC(=O)c2nccc(OC)c2OCOC(C)=O)C(=O)O[C@@H](C)[C@@H]1CC(C)C [compound 63]	< 70%	< 70%	> 70%	< 70%
CCC[C@H]1COC[C@H](NC(=O)c2nccc(OC)c2OC(C)=O)C(=O)O[C@@H](C)[C@@H]1CC(C)C [compound 64]	> 70%	> 70%	> 70%	> 70%
